Several values for one entry are separate records, joined by “and”; a condition that tells them apart may be missing. Equal entries are not always repeated.
Assays:
transferrin = test: Percent transferrin saturation in treated animals; assay type: in vivo, cynomologous macaques
Protocol: (§1) Eleven (11) cynomologous macaques (8 male and 3 female, weight 3.0-5.9 kg.) were randomly divided into 2 groups. Craniotomy was performed in all animals and autologous clot was placed around the right middle cerebral artery (R MCA) after the arachnoid membrane was removed, as described elsewhere [Pluta et al., J. Neurosurg. 77:740-748 (1992)]. Six animals (3 male and 3 female) received IV infusion of 2,2'-dipyridyl (70 mg/kg/day) continuously for 14 days. Between postoperative days 7 and 10, cerebral arteriography was used to assess the presence and degree of vasospasm using methods previously described [Pluta et al., J. Neurosurg. 77:740-748 (1992)]. The five control animals (all male) received IV infusion of saline in a volume equal to that delivered in the experimental group (10-15 cc/kg/day). Two pilot animals were also used in an initial phase in order to establish an effective experimental dose. One received 44 mg/kg/day of IV 2,2'-dipyridyl, and the other received up to 100 mg/kg/8 hrs of IV 2,2'-dipyridyl.
Plasma samples were collected on days 0 and 7 of each experiment and were analyzed by Maryland Medical Pathology (Rockville, Md.) for serum iron and percent transferrin saturation. Due to the molecular complexity of iron chelators, direct assays for these drugs are not available.
Data are reported as means of measurements by three individuals ±SEM and compared using an unpaired […] test. Significance was accepted at p<0.05.

[1] = test system: liver, kidney, brain and other tissues; test: Gross and microscopic anatomic pathology; assay type: in vivo, cynomologous macaques; parameters: key to Toxicity Liver: L+: swelling of hepatocytes; L++: degeneration; L+++: lipidosis (#73, #105), regeneration (885N); details: IV 70 mg/kg/day for 14 days
Protocol: as §1
Tissues were studied for gross and microscopic anatomic pathology by Dr. Michael Eckhaus and staff (Veterinary Resources Program, National Center for Research Resources, NIH, Bethesda, Md.).

[2] = Clinical observations for signs of drug toxicity; assay type: in vivo, cynomologous macaques
Protocol: as §1
The monkeys were observed daily for changes in weight, feeding, behavior, alertness, and neurologic function. The monkeys also were observed closely for signs of drug toxicity, including tremors, emesis, vomiting, diarrhea, seizures, and CNS depression [Sigma MSDS, CAS #366-18-7, 1994].
Pilot studies were done to determine the experimental dosage. […] The second pilot animal received up to 100 mg/kg/8 hours. […] These two pilot animals were then excluded from further data analysis.

[3] = Blood pressure monitoring; assay type: in vivo, cynomologous macaques; details: all animals except pilot animal receiving 100 mg/kg/8 hours; 14-day treatment
Protocol: as §1
(§2) All studies were performed in the standard anteroposterior projection (AP). During the arteriography, the end-tidal CO2 was maintained at 40 mm Hg and core body temperature was maintained at 37 degrees Celsius using a heating pad. Blood pressures were monitored during all procedures.

[4] = test system: right middle cerebral artery (R MCA); test: Arteriographic vasospasm of the R MCA in primate model of SAH (autologous clot placement); assay type: in vivo, cynomologous macaques; details: for arteriographic vasospasm: 70 mg/kg/day
Protocol: as §1
Each monkey underwent arteriographic study of the R MCA 3 to 21 days before surgery and 7 to 10 days after clot placement [Pluta et al., J. Neurosurg. 77:740-748 (1992)]. Under general anesthesia (ketamine 10 mg/kg and isoflurane) and sterile conditions, a cutdown of the right femoral artery was performed and a No. 3 French catheter was advanced to the right ICA. Fluoroscopy (C-arm; OEC) and intravenous contrast (2 cc Conray, 60%; Malinkrodt Medical, St. Louis, Mo.), were used to acquire subtraction images of the vessel. A radiopaque ruler was placed in the field to allow standardized measurements.
as §2
Placement of Subarachnoid Clot and Indwelling Intravenous Catheter
As in previous studies [Pluta et al., J. Neurosurg. 77:740-748 (1992)], each animal was anesthetized as follows. Each monkey was given an injection of ketamine (10 mg/kg IM), atropine sulfate (0.05 mg/kg IM), and sodium thiopental (25 mg/kg IV). The animals were intubated and ventilated with isoflurane (0.5%-1.0%) and 100% O2 and paralyzed with pancuronium (0.1 mg/kg). Each animal was hyperventilated to an end-tidal CO2 of 30 to 40 mm Hg.
Each animal was placed in the supine position for a right frontotemporal craniotomy. Under sterile conditions, the dura was opened and the R MCA was identified in the sylvian fissure. Using the operating microscope, the arachnoid membrane over the R MCA was dissected from the trifurcation to the origin of the vessel at the ICA bifurcation. 8-10 cc of autologous clotted arterial blood obtained by an assistant via a left femoral cutdown was then placed along the length of the exposed vessel. The dura was then closed in a watertight fashion, followed by the muscle and skin layers.
Each animal was then repositioned for placement of a 6.6 French Broviac catheter in the left femoral vein. […] The distal end of the catheter was passed subcutaneously to the midscapular region and secured. Each monkey was fitted in a jacket containing an infusion pump (Disetronic Medical Systems, Plymouth, Minn.) which delivered 70 mg/kg (60 cc/24 hours) of the 2,2'-dipyridyl solution. Each monkey was sedated daily with ketamine (10 mg/kg IM) to change the delivery pump. […]

[5] = Serum iron concentration in treated animals; assay type: in vivo, cynomologous macaques; details: drug-treated animals, 70 mg/kg/day
Protocol: as §1
Plasma samples were collected on days 0 and 7 of each experiment and were analyzed by Maryland Medical Pathology (Rockville, Md.) for serum iron and percent transferrin saturation. Due to the molecular complexity of iron chelators, direct assays for these drugs are not available. […]

[6] = ferric iron; cited from earlier work
[7] = Harada et al. 1992; Vollmer et al. 1991; cited from earlier work
[8] = Peters et al. 1966; Oubidar et al. 1994; cited from earlier work
[9] = ferrous iron; cited from earlier work
[10] = NO versus oxygen; cited from earlier work
[11] = Afshar et al. 1995; cited from earlier work
[12] = background statement; cited from earlier work
[13] = pilot animal, IV 44 mg/kg/24 hours for 14 days

c1ccc(-c2ccccn2)nc1 [2,2'-dipyridyl]
percent saturation of transferrin, change in treated animals (transferrin; 70 mg/kg/day): decreased
TransFe sat % Day 0 (transferrin; individual monkey, day 0, IV 70 mg/kg/day, 70 mg/kg/day): 40% and 32% and 31% and 33%
TransFe sat % Day 7 (transferrin; individual monkey, day 7, IV 70 mg/kg/day, 70 mg/kg/day): 2% and 0% and -1% and -2% and -4%
TransFe sat % Day 0, Mean (transferrin; mean of table, day 0, IV 70 mg/kg/day): 34 ± 4%
TransFe sat % Day 7, Mean (transferrin; mean of table, day 7, p < 0.0001, IV 70 mg/kg/day): -1.2 ± 2%
brain changes (substantia nigra, cerebellum Purkinje cells) [1]: No brain changes
gross pathology: brain, liver, kidney, lymph nodes, spleen, intestine, gonads, or skeletal or cardiac muscle [1]: no toxicity
kidney pathology (collecting tubules), animals #2 and #5 [1]: Multifocal casts
kidney pathology, animals #1, #3, #4, or #6 [1]: No sign of nephrotoxicity
liver pathology, animals #1, #3, #4, and #5 [1]: Hepato-cellular swelling
liver pathology, animals #2 and #6 [1]: Hepatocellular degeneration
liver pathology, overall [1]: Mild changes
microscopic pathology: brain (substantia nigra and cerebellar Purkinje cells), lymph nodes, spleen, intestine, gonads, or skeletal or cardiac muscle [1]: no toxicity
Toxicity Liver ([1]; individual monkey, 70 mg/kg/day): L+ and L++
toxicity at the effective dose ([2]; 70 mg/kg/day): mild
resolution of tremors and leg weakness, animal #1 ([2]; IV 70 mg/kg/day): ≤ 4 days
resolution of tremors and leg weakness, animal #2 ([2]; IV 70 mg/kg/day): did not resolve in animal #2 by day 14
resolution of tremors and leg weakness, animal #4 ([2]; IV 70 mg/kg/day): ≤ 6 days
toxic symptoms ([2]; animals #1, #2, and #4, IV 70 mg/kg/day for 14 days): mild tremors of the upper and lower extremities, and leg weakness
toxic symptoms ([2]; animals #3, #5, and #6, IV 70 mg/kg/day for 14 days): no toxic symptoms
weight loss, changes in feeding habits, or alertness ([2]; control or treated animals, IV 70 mg/kg/day for 14 days): None
signs of toxicity [2, 13]: no sign of toxicity
symptoms of toxicity ([2]; pilot animal, IV up to 100 mg/kg/8 hours, sacrificed on fourth day of drug delivery): symptoms of toxicity (tremors, emesis, and diarrhea)
blood pressures during preoperative and postoperative arteriography [3]: stable and equivalent blood pressures
arteriographic vasospasm ([4]; IV 70 mg/kg/day for 14 days, n=6, postoperative day 7-10): no arteriographic vasospasm
arteriographic vasospasm ([4]; IV 70 mg/kg/day for 14 days, n=6, postoperative day 7-10, listed as DP): no spasm
mean AP area of the proximal portion of the MCA, of the baseline area ([4]; IV 70 mg/kg/day for 14 days, n=6, postoperative day 7-10, mean ± SEM, p<0.0001, control 44.8%±4.6%): 3.9%±4.3
vasospasm (reduction of AP area of R MCA) [4, 13]: 20%
vasospasm grade [4, 13]: mild (reduction in the AP area of the defined segment of the MCA of 12-25%)
serum iron, day 7 as compared to day 0 [5]: markedly reduced

CC(=O)N(O)CCCCCNC(=O)CCC(=O)N(O)CCCCCNC(=O)CCC(=O)N(O)CCCCCN [deferoxamine]
deferoxamine-iron stability constant for Fe^+3 [6]: 10^31
success in potential therapies for vasospasm [7]: limited success
CSF levels before toxic systemic effects appear [8]: adequate CSF levels cannot be achieved before toxic systemic effects appear
penetrability of the blood-brain barrier [8]: limited penetrability
deferoxamine-iron stability constant for Fe^+2 [9]: 10^2 to 10^14

Hemoglobin: Hemoglobin has a strong affinity for NO
binding to NO more readily than to oxygen [10]: 1,500 fold

nitric oxide [NO]
effect of intracarotid infusion on vasospasm [11]: reversal of vasospasm

oxyhemoglobin: the clinically-relevant vasospastic agent
vasospastic activity [12]: vasospastic

Source: patent US6156765A, “Method of treating and preventing vasospasm” (The United States of America as represented by the …, priority 1996, dated 2000)
